The supplement of paper PMC10307832

How the values were obtained:
Experiment in all cases: relative viability (nuclei count vs DMSO), 5 days (fraction); higher = more cells survive
[1] = system: RERF-LC-KJ
Summary of the method: (§1)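 Relative viability was taken as the ratio of nuclei in treated wells to nuclei in vehicle wells. Lung cancer cell lines in 1536-well plates received compounds by pin tool one day after seeding, either one drug alone or a fixed anchor-drug dose plus five library-drug doses (not always all listed) in √10 steps. Nuclei were counted on 4× images after 5 days of treatment, and values are medians of duplicate plates.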

[2] = system: NCI-H1993
Summary of the method: as §1

[3] = system: COR-L 105
Summary of the method: as §1

[4] = system: NCI-H1651
Summary of the method: as §1

[5] = system: NCI-H2087
Summary of the method: as §1

[6] = system: HOP-62
Summary of the method: as §1

[7] = system: NCI-H650
Summary of the method: as §1

[8] = system: NCI-H2170
Summary of the method: as §1

[9] = system: LXF-289
Summary of the method: as §1

[10] = system: COR-L23
Summary of the method: as §1

[11] = system: NCI-H2085
Summary of the method: as §1

[12] = system: NCI-H2342
Summary of the method: as §1

[13] = system: NCI-H1975
Summary of the method: as §1

[14] = system: NCI-H2023
Summary of the method: as §1

[15] = system: PC-14
Summary of the method: as §1

[16] = system: NCI-H3122
Summary of the method: as §1

[17] = system: NCI-H647
Summary of the method: as §1

[18] = system: SK-MES-1
Summary of the method: as §1

[19] = system: LCLC-103H
Summary of the method: as §1

[20] = system: CAL-12T
Summary of the method: as §1

[21] = system: A-427
Summary of the method: as §1

[22] = system: EPLC-272H
Summary of the method: as §1

[23] = system: NCI-H1395
Summary of the method: as §1

CCCCCCCCCCCC1=C(O)C(=O)C=C(O)C1=O [Embelin] + CC(=O)c1c(C)c2cnc(Nc3ccc(N4CCNCC4)cn3)nc2n(C2CCCC2)c1=O [Palbociclib] (partner 0.5 µM)
relative viability ([1]; first compound 0.08 µM): 1.15
relative viability ([1]; first compound 0.8 µM): 1.15
relative viability ([1]; first compound 2.53 µM): 1.24
relative viability ([1]; first compound 8 µM): 0.979
relative viability ([2]; first compound 0.08 µM): 0.641
relative viability ([2]; first compound 0.8 µM): 0.674
relative viability ([2]; first compound 2.53 µM): 0.721
relative viability ([2]; first compound 8 µM): 0.614
relative viability ([3]; first compound 0.08 µM): 0.435
relative viability ([3]; first compound 0.8 µM): 0.399
relative viability ([3]; first compound 2.53 µM): 0.405
relative viability ([3]; first compound 8 µM): 0.439
relative viability ([4]; first compound 0.08 µM): 0.503
relative viability ([4]; first compound 0.8 µM): 0.543
relative viability ([4]; first compound 2.53 µM): 0.547
relative viability ([4]; first compound 8 µM): 0.488
relative viability ([5]; first compound 0.08 µM): 0.236
relative viability ([5]; first compound 0.8 µM): 0.227
relative viability ([5]; first compound 2.53 µM): 0.266
relative viability ([5]; first compound 8 µM): 0.248
relative viability ([6]; first compound 0.08 µM): 0.433
relative viability ([6]; first compound 0.8 µM): 0.489
relative viability ([6]; first compound 2.53 µM): 0.451
relative viability ([6]; first compound 8 µM): 0.392
relative viability ([7]; first compound 0.08 µM): 0.272
relative viability ([7]; first compound 0.8 µM): 0.407
relative viability ([7]; first compound 2.53 µM): 0.34
relative viability ([7]; first compound 8 µM): 0.313
relative viability ([8]; first compound 0.08 µM): 0.407
relative viability ([8]; first compound 0.8 µM): 0.418
relative viability ([8]; first compound 2.53 µM): 0.516
relative viability ([8]; first compound 8 µM): 0.382
relative viability ([9]; first compound 0.08 µM): 0.594
relative viability ([9]; first compound 0.8 µM): 0.59
relative viability ([9]; first compound 2.53 µM): 0.649
relative viability ([9]; first compound 8 µM): 0.613
relative viability ([10]; first compound 0.08 µM): 0.346
relative viability ([10]; first compound 0.8 µM): 0.351
relative viability ([10]; first compound 2.53 µM): 0.313
relative viability ([10]; first compound 8 µM): 0.299
relative viability ([11]; first compound 0.08 µM): 0.441
relative viability ([11]; first compound 0.8 µM): 0.464
relative viability ([11]; first compound 2.53 µM): 0.502
relative viability ([11]; first compound 8 µM): 0.469
relative viability ([12]; first compound 0.08 µM): 0.54
relative viability ([12]; first compound 0.8 µM): 0.514
relative viability ([12]; first compound 2.53 µM): 0.542
relative viability ([12]; first compound 8 µM): 0.439
relative viability ([13]; first compound 0.08 µM): 0.601
relative viability ([13]; first compound 0.8 µM): 0.605
relative viability ([13]; first compound 2.53 µM): 0.783
relative viability ([13]; first compound 8 µM): 0.586
relative viability ([14]; first compound 0.08 µM): 0.379
relative viability ([14]; first compound 0.8 µM): 0.345
relative viability ([14]; first compound 2.53 µM): 0.455
relative viability ([14]; first compound 8 µM): 0.351
relative viability ([15]; first compound 0.08 µM): 0.548
relative viability ([15]; first compound 0.8 µM): 0.597
relative viability ([15]; first compound 2.53 µM): 0.819
relative viability ([15]; first compound 8 µM): 0.569
relative viability ([16]; first compound 0.08 µM): 0.18
relative viability ([16]; first compound 0.8 µM): 0.236
relative viability ([16]; first compound 2.53 µM): 0.175
relative viability ([16]; first compound 8 µM): 0.186
relative viability ([17]; first compound 0.08 µM): 0.405
relative viability ([17]; first compound 0.8 µM): 0.448
relative viability ([17]; first compound 2.53 µM): 0.528
relative viability ([17]; first compound 8 µM): 0.38
relative viability ([18]; first compound 0.08 µM): 0.366
relative viability ([18]; first compound 0.8 µM): 0.374
relative viability ([18]; first compound 2.53 µM): 0.321
relative viability ([18]; first compound 8 µM): 0.297
relative viability ([19]; first compound 0.08 µM): 0.496
relative viability ([19]; first compound 0.8 µM): 0.459
relative viability ([19]; first compound 2.53 µM): 0.461
relative viability ([19]; first compound 8 µM): 0.511
relative viability ([20]; first compound 0.08 µM): 0.483
relative viability ([20]; first compound 0.8 µM): 0.538
relative viability ([20]; first compound 2.53 µM): 0.331
relative viability ([20]; first compound 8 µM): 0.553
relative viability ([21]; first compound 0.08 µM): 0.525
relative viability ([21]; first compound 0.8 µM): 0.563
relative viability ([21]; first compound 2.53 µM): 0.526
relative viability ([21]; first compound 8 µM): 0.496
relative viability ([22]; first compound 0.08 µM): 0.361
relative viability ([22]; first compound 0.8 µM): 0.328
relative viability ([22]; first compound 2.53 µM): 0.358
relative viability ([22]; first compound 8 µM): 0.324
relative viability ([23]; first compound 0.08 µM): 0.599
relative viability ([23]; first compound 0.8 µM): 0.623
relative viability ([23]; first compound 2.53 µM): 0.65
relative viability ([23]; first compound 8 µM): 0.563
